The record followed here is article PMC7321382, “Synthesis and Antibacterial Analysis of Analogues of the Marine Alkaloid Pseudoceratidine” (Molecules, 2020).

≈ marks a conversion by molar mass, not a printed value.

The test system of data set [1] is HEK293 human embryonic kidney cells. Description: Cytotoxicity, sulforhodamine B cell proliferation assay. The format is cell-based. Conditions: for relative growth of HEK293 cells (% of untreated control) at 16 µM: Homo sapiens, 72 h, 16 µM compound, 3 days, relative to control with no treatment, mean ± SD of triplicates. How it is done: As described previously, cell proliferation was measured by sulforhodamine B colorimetric assay in which 2000 HEK293 human embryonic kidney cells were seeded in 96-well plates in the presence of varying concentrations of drugs. The sulforhodamine B colorimetric assay, which is based on the measurement of cellular protein content, was used to measure cell density. After drug treatment for 3 days, cells were fixed with 10% (w/v) trichloroacetic acid and stained with 0.057% (w/v) sulforhodamine B for 30 min, and the excess dye was removed by washing repeatedly with 1% (v/v) acetic acid. The protein-bound dye was dissolved in Tris base solution (10 mM) for optical density determination at 510 nm using a microplate reader. All experiments were done in triplicate, and were repeated at least twice. The optimal cell densities were previously determined to select initial cell densities that ensured that the cells were in the logarithmic phase for the experiments.

The test system of a further data set is E. coli DH5α. Description: Antibacterial MIC, broth microdilution, E. coli. It is filed as cell-based, Escherichia coli. Conditions: Escherichia coli; Gram-negative; 24 h incubation; highest concentration tested 128 µM; † lower starting concentration due to insolubility. How it is done:
(§1) The MIC was determined using the broth microdilution method. Mueller Hinton (MH) broth base was prepared in milli-Q water, then autoclaved at 120 °C for 1 h before allowing it to cool to room temperature. A single colony of each bacterial strain (E. coli DH5α and S. aureus 16207) was inoculated in MHB and incubated at 37 °C overnight. Overnight cultures were adjusted to 10^6 CFU/mL in MHB according to the McFarland Standard,100 μL of which was further diluted to a total of 10 mL in the media. The stock solutions of the compounds were prepared at 12.8 mM in purified DMSO. The stock solutions were further diluted in milli-Q water to 64 μM in 0.5% DMSO for testing against S. aureus, and 256 μM in 2% DMSO for testing against E. coli. Compounds that were not soluble in these solvent mixtures were further diluted in half to get clear solutions for the bioassay. DMSO is known to have weak antibacterial activity. To exclude the antibacterial effect of DMSO from the results, a solution of 2% DMSO in milli-Q water was used as an additional control in the experiments. The compounds and three controls (the natural product pseudoceratidine 1 for both strains, streptomycin for S. aureus, and polymyxin B for E. coli) then underwent a dilution series. The assay was performed by adding 50 μL of each compound solution at the different concentrations and 50 μL of the diluted bacterial culture to the different wells of a 96-well microtiter plate. The experiments were performed at least thrice and in triplicates. MIC after 24 h of incubation was determined by both visual inspection and absorbance at 600 nm using an EnSpire Multimode plate reader.

Another data set has as its system S. aureus 16207. Description: Antibacterial MIC, broth microdilution, S. aureus. The format is cell-based, Staphylococcus aureus. Conditions: Gram-positive, 24 h incubation, highest concentration tested 32 µM; for MIC: Staphylococcus aureus, 16207. On the procedure:
as §1

For the compound `O=C(NCCCNCCCNCCCNC(=O)c1cc(Cl)c(Cl)[nH]1)c1cc(Cl)c(Cl)[nH]1` [Compound 18c], the melting point (as a rule, the temperature of the solid-liquid transition) fell in the range of 109 to 111 °C. Further, the “cytotoxic activity (in words)” value in data set [1] (HEK293, at concentrations 2–4 times the MIC (16 µM)) was “almost no cytotoxic activity”. This compound displayed a relative growth of HEK293 cells (% of untreated control) at 16 µM in data set [1] of 98 ± 4.5%. Besides, the MIC (as a rule, the smallest concentration in the dilution series that meets the test's criterion for growth inhibition) against E. coli DH5α lay within 32 to 64 µM (≈ 16.4 to 32.8 µg/mL). Besides, in the data set with S. aureus 16207, the “MIC S. Aureus” value lay in the range of 4 to 8 µM and the MIC lay in the range of 4 to 8 µM (≈ 2.05 to 4.1 µg/mL).

In the case of `O=C(NCCCCCCNCCCCCCNC(=O)c1cc(Cl)c(Cl)[nH]1)c1cc(Cl)c(Cl)[nH]1` [Compound 15c], the melting point was 189 to 190 °C. Also, the relative growth of HEK293 cells (% of untreated control) at 16 µM in data set [1] was 1.8 ± 2%. The MIC against E. coli DH5α is 32 to 64 µM (≈ 17.3 to 34.5 µg/mL). Also, in the data set with S. aureus 16207, the “MIC S. Aureus” value fell in the range of 4 to 8 µM and the MIC is 4 to 8 µM (≈ 2.16 to 4.31 µg/mL).

In data set [1], `O=C(NCCCNCCCNCCCNC(=O)c1cc(Br)c(Br)[nH]1)c1cc(Br)c(Br)[nH]1` [Compound 18e] showed a relative growth of HEK293 cells (% of untreated control) at 16 µM of 2.1 ± 1.5%. This compound also gave an MIC in the data set on E. coli DH5α of 32 to 64 µM (≈ 22.1 to 44.2 µg/mL). In addition, in the data set with S. aureus 16207, the “MIC S. Aureus” value was 2 to 4 µM and the MIC was in the range of 2 to 4 µM (≈ 1.38 to 2.76 µg/mL).

For the compound `O=C(NCCCNCCCNC(=O)c1cc(Cl)c(Cl)[nH]1)c1cc(Cl)c(Cl)[nH]1` [Compound 14c], the melting point lay within 189 to 190 °C. For the same compound, the relative growth of HEK293 cells (% of untreated control) at 16 µM in data set [1] was 0.5 ± 0.3%. The MIC in the data set on E. coli DH5α was 64 to 128 µM (≈ 29.1 to 58.3 µg/mL). Besides, in the data set on S. aureus 16207, the “MIC S. Aureus” value was 8 to 16 µM and the MIC was 8 to 16 µM (≈ 3.64 to 7.28 µg/mL).

The compound `O=C(NCCCNCCCCNCCCNC(=O)c1cc(Cl)c(Cl)[nH]1)c1cc(Cl)c(Cl)[nH]1` [Compound 19c] had a melting point of 110 to 112 °C. The same compound displayed a relative growth of HEK293 cells (% of untreated control) at 16 µM in data set [1] of 1.6 ± 2%. In the data set with E. coli DH5α, this compound registered an MIC of 128 to 256 µM (≈ 67.4 to 135 µg/mL). In the data set with S. aureus 16207, the “MIC S. Aureus” value was 4 to 8 µM and the MIC fell in the range of 4 to 8 µM (≈ 2.11 to 4.21 µg/mL).

The compound `O=C(NCCCNCCCNC(=O)c1ccc[nH]1)c1ccc[nH]1` [Compound 14a] displayed a melting point of 165 to 166 °C. For the same compound, the MIC against E. coli DH5α is above 128 µM. The compound further had an MIC in the data set on S. aureus 16207 above 32 µM.

The compound `O=C(NCCCCNC(=O)c1cc(Cl)c(Cl)[nH]1)c1cc(Cl)c(Cl)[nH]1` [Compound 12c] returned a melting point above 230 °C. In the data set with E. coli DH5α, this compound came in with an MIC above 64 µM. The MIC in the data set on S. aureus 16207 was above 32 µM.

`O=C(NCCCCNC(=O)c1cc(Br)c[nH]1)c1cc(Br)c[nH]1` [Compound 12d] showed a melting point above 230 °C. The same compound showed an MIC against E. coli DH5α above 64 µM. The compound further gave an MIC with S. aureus 16207 above 32 µM.

`O=C(NCCCNCCCCNCCCNC(=O)c1cc(I)c[nH]1)c1cc(I)c[nH]1` [Compound 19f] gave a melting point of 173 to 175 °C. In addition, the MIC against E. coli DH5α is above 128 µM. In addition, the MIC with S. aureus 16207 is 16 to 32 µM (≈ 10.2 to 20.5 µg/mL).

`O=C(NCCCCNC(=O)c1cc(Br)c(Br)[nH]1)c1cc(Br)c(Br)[nH]1` [Compound 12e]: the melting point was above 230 °C. Besides, the MIC in the data set on E. coli DH5α was above 64 µM. Also, the MIC against S. aureus 16207 was above 32 µM.

`O=C(NCCCNCCCNC(=O)c1cc(Cl)c[nH]1)c1cc(Cl)c[nH]1` [Compound 14b] returned a melting point of 78 to 80 °C. The compound further gave an MIC in the data set on E. coli DH5α above 128 µM. The compound also had an MIC in the data set with S. aureus 16207 above 32 µM.

In data set [1], `O=C(NCCCCCCNCCCCCCNC(=O)c1cc(Br)c(Br)[nH]1)c1cc(Br)c(Br)[nH]1` [Compound 15e] gave a relative growth of HEK293 cells (% of untreated control) at 16 µM of 1.3 ± 0.8%. Also, the MIC in the data set with E. coli DH5α was in the range of 16 to 32 µM (≈ 11.5 to 22.9 µg/mL). In the data set on S. aureus 16207, the “MIC S. Aureus” value fell in the range of 4 to 8 µM and the MIC fell in the range of 4 to 8 µM (≈ 2.87 to 5.74 µg/mL).

In turn, `O=C(NCCCCCCNCCCCCCNC(=O)c1ccc[nH]1)c1ccc[nH]1` [Compound 15a] gave a melting point of 129 to 131 °C. This compound also came in with a minimum inhibitory concentration (MIC) against E. coli DH5α above 128 µM. The compound also displayed an MIC with S. aureus 16207 above 32 µM.

Regarding `O=C(NCCCCNC(=O)c1cc(Cl)c[nH]1)c1cc(Cl)c[nH]1` [Compound 12b], the melting point was above 230 °C. Further, the MIC in the data set with E. coli DH5α was above 64 µM. The MIC against S. aureus 16207 is above 32 µM.

For `O=C(NCCNCCNC(=O)c1cc(I)c[nH]1)c1cc(I)c[nH]1` [Compound 13f], the melting point lay within 193 to 195 °C. The compound further returned an MIC against E. coli DH5α above 64 µM. The compound also returned an MIC in the data set on S. aureus 16207 above 32 µM.
